Test results: US4605643A, “Ovine GRF” (The Salk Institute for Biological Studies, priority 1984, dated 1986)

Tested on: rat pituitary cells
Assay: in vitro release of growth hormone from cultured rat pituitary cells (ir GH by radioimmunoassay), side-by-side with hGRF(1-44)-NH2
Type: cell-based
Procedure: To determine the effectiveness of the peptide to promote the release of growth hormone, in vitro assays are carried out using synthetic hGRF(1-44)-NH2 in side-by-side comparison with equimolar concentrations of the extracted and purified oGRF(1-44) of Example II. hGRF thus serves as a GRF Reference Standard having a known effectiveness to promote the release of growth hormone from rat pituitary cells. Cultures are used which include cells of rat pituitary glands removed some four to five days previously. Both cultures of a defined standard medium and cultures which are considered optimal for the secretion of growth hormone are used for the comparative testing, in the general manner described in Brazeau, et al. Regulatory Peptides, 1, 255, 1981. Incubation with the substance to be tested is carried out for 3 to 4 hours, and aliquots of the culture medium are removed and processed to measure their contents in immunoreactive GH(ir GH) by a well-characterized radioimmunoassay.

[1] = equimolar ratios, incubation 3 to 4 hours, ir GH in culture medium by RIA
[2] = multiple doses factorial design experiments

With `CC[C@H](C)[C@H](NC(=O)[C@H](C)NC(=O)[C@H](CC(=O)O)NC(=O)[C@H](C)NC(=O)[C@@H](N)Cc1ccc(O)cc1)C(=O)N[C@@H](Cc1ccccc1)C(=O)N[C@H](C(=O)N[C@@H](CC(N)=O)C(=O)N[C@@H](CO)C(=O)N[C@@H](Cc1ccc(O)cc1)C(=O)N[C@@H](CCCNC(=N)N)C(=O)N[C@@H](CCCCN)C(=O)N[C@H](C(=O)N[C@@H](CC(C)C)C(=O)NCC(=O)N[C@@H](CCC(N)=O)C(=O)N[C@@H](CC(C)C)C(=O)N[C@@H](CO)C(=O)N[C@@H](C)C(=O)N[C@@H](CCCNC(=N)N)C(=O)N[C@@H](CCCCN)C(=O)N[C@@H](CC(C)C)C(=O)N[C@@H](CC(C)C)C(=O)N[C@@H](CCC(N)=O)C(=O)N[C@@H](CC(=O)O)C(=O)N[C@H](C(=O)N[C@@H](CCSC)C(=O)N[C@@H](CC(N)=O)C(=O)N[C@@H](CCCNC(=N)N)C(=O)N[C@@H](CCC(N)=O)C(=O)N[C@@H](CCC(N)=O)C(=O)NCC(=O)N[C@@H](CCC(=O)O)C(=O)N[C@@H](CCCNC(=N)N)C(=O)N[C@@H](CC(N)=O)C(=O)N[C@@H](CCC(N)=O)C(=O)N[C@@H](CCC(=O)O)C(=O)N[C@@H](CCC(N)=O)C(=O)NCC(=O)N[C@@H](C)C(=O)N[C@@H](CCCCN)C(=O)N[C@H](C(=O)N[C@@H](CCCNC(=N)N)C(=O)N[C@@H](CC(C)C)C(N)=O)C(C)C)[C@@H](C)CC)[C@@H](C)CC)[C@@H](C)O` [oGRF(1-44)] the “intrinsic biological activity (release of growth hormone) compared with synthetic hGRF(1-44)-NH2” value [1] was “full intrinsic biological activity of the synthetic peptide”, the “potency (release of growth hormone) compared with synthetic hGRF(1-44)-NH2” value [1] was “close to the same potency” and the “intrinsic activity compared with hGRF(1-44)-NH2” value [2] was “about the same intrinsic activity as hGRF(1-44)-NH2”. The “specific activity relative to hGRF(1-44)-NH2” value [2] was “about 70 % of hGRF(1-44)-NH2”.
